The source of these data is PMC9800617, “Pharmacokinetics/pharmacodynamics of polymyxin B in patients with bloodstream infection caused by carbapenem-resistant Klebsiella pneumoniae” (Frontiers in Pharmacology, 2022).

The subject of experiment [1] is carbapenem-resistant K. pneumoniae (CRKP) strains. In words: Broth microdilution MIC (EUCAST). It counts as cell-based. To be noted: Klebsiella pneumoniae. As to the method: The minimum inhibitory concentrations (MICs) to polymyxin B and meropenem of the collected CRKP strains were determined by broth microdilution according to the European Committee on Antimicrobial Susceptibility Testing (EUCAST) guidelines and interpreted according to EUCAST breakpoints of colistin (Breakpoint tables for interpretation of MICs and zone diameters, Version 11.0); Escherichia coli ATCC 25922 was used as the control strain. Polymerase chain reaction (PCR) was employed to determine the presence of resistance genes (KPC, NDM, IMP, OXA, VIM). The primers were the same as in a published protocol and the sample process procedures were adapted a little bit ([Poirel et al., 2011]). To be brief, a single colony of the bacteria were picked and resuspended in ultra-pure water, and total DNA was extracted by heating bacterial suspension at 100°C for 10 min to lysis and release DNA. The suspension was centrifuged for total DNA which was dissolved in supernatant. Then 2 µl total DNA, 1 µl forward and 1 µl reverse primers (10 µM) for each targeted gene, 12.5 µl 2 × Hieff® Robust PCR Master Mix (Yeasen, Shanghai, China) and ultra-pure water were mixed into a 25 µl reaction mixture. […] Finally amplified DNA fragments were analyzed by electrophoresis in a 1% agarose gel. […]

The subject of experiment [2] is A. baumannii. The following applies: cited from earlier work. The procedure: (§1) Monte Carlo simulations were conducted for the probability of target attainment (PTA) analysis to guide the selection of optimal dosage regimens. Different dosage regimens were simulated by the PPK model and AUCss,24h were calculated. […] The maximal reductions in colony f ... || FIGURE 4 Probability of target attainment for different dosage regimens of polymyxin B against common carbapenem-resistant organisms according to PK/PD simulations. (A) Loading dose for three bacterial species. […] In preclinical studies, the fAUC/MIC required for various magnitudes of bacterial killing varied among bacterial strains and infection sites. […] Against P. aeruginosa and A. b ... || (+ 2 further places)

Experiment [3] deals with P. aeruginosa. To be noted: cited from earlier work. As to the method: as §1
For experiment [4], the system named is carbapenem-resistant K. pneumoniae. The following applies: retrospective, 2021, cited from earlier work. From the text:
In the present study, microbiological eradication was achieved by the third day of treatment in all eight patients assessed and blood culture remained negative until they had completed the study or withdrew. Clinical improvement occurred in 6 of 8 (75%) of th ...

In brackets after ≈: the same amount, converted by molar mass. Like-named read-outs stand apart in the source and are kept apart here. Some results are limits rather than exact numbers.

As to `C[C@@H](O)[C@H]1C(=O)N2C(C(=O)O)=C(S[C@@H]3CN[C@H](C(=O)N(C)C)C3)[C@H](C)[C@H]12` [meropenem], the MIC in experiment [1] (9 strains (all except strain No. 2–2), read-out: meropenem MIC) is above 64 µg/mL; in experiment [1] (strain No. 2–2, read-out: meropenem MIC) it was 4 µg/mL (≈ 10.4 µM).
In the case of colistin, the fAUC24h/MIC target is 17.6 in experiment [2] (2-log10 reduction against A. baumannii, murine thigh infection, ref Cheah et al., 2015) and 13.5 in experiment [3] (2-log10 reduction against P. aeruginosa, murine thigh infection, ref Cheah et al., 2015). The fAUC/MIC target was around 17 in experiment [2] (2 log10 kill, mouse thigh infection, A. baumannii, ref Dudhani et al., 2010a, 2010b) and around 17 in experiment [3] (2 log10 kill, mouse thigh infection, P. aeruginosa, ref Dudhani et al., 2010a, 2010b).
ceftazidime-avibactam: the 30-day mortality entry in experiment [4] (CRKP BSI, alone or combined with other antibiotics, ref Tumbarello et al.) is listed as “around 25%”.
Consider `NCC[C@H](O)C(=O)N[C@@H]1C[C@H](N)[C@@H](O[C@H]2O[C@H](CN)[C@@H](O)[C@H](O)[C@H]2O)[C@H](O)[C@H]1O[C@H]1O[C@H](CO)[C@@H](O)[C@H](N)[C@H]1O` [amikacin], for which, in experiment [4] (amikacin and its combinations for CRKP infection, ref Rodrigues et al.), the 30-day mortality is reported as 34.5%.

One may read the MIC as the least concentration at which growth counts as inhibited.
